Patent publication US12083115B2, “Methods for treating neurological symptoms associated with lysosomal storage diseases” (Genzyme Corporation, priority 2020, dated 2024)
Like-named read-outs stand apart in the source and are kept apart here.

How the values were obtained:
Assay type in all cases: in vivo, human
[1] = Study 1 Part 1: ascending single-dose PK in healthy men; details: for half-life / Tmax / AUC(0-inf) / AUC(0-t) / Cmax / Vd/F: male, human, plasma
From the text: Study 1 was a 2-part single-center trial in healthy adult male volunteers.
Part 1 of the study enrolled and randomized 55 healthy men (placebo, n=14; 2-, 5-, 15, 25-, 50, and 100-mg doses, n=6 each; 150-mg dose, n=5). Eight healthy men participated in Part 2. […]

[2] = test system: plasma GL-1 (glucosylceramide); experiment: Study 2: plasma GL-1 pharmacodynamics
Experimental: (§1) The study enrolled and randomized 36 healthy adults (19 men and 17 women) (n=9 each to group).
(§2) Pharmacodynamic endpoints (plasma GL-1, GL-3, and GM3 concentrations) were assessed on Days 1-5, 8, 11, 13, and 14, at 0 hours […]; and on Day 15, at 24 hours after the Day 14 dose.

[3] = test system: plasma GM3 (GM3 ganglioside); experiment: Study 2: plasma GM3 pharmacodynamics
Experimental: as §1, §2

CC(C)(NC(=O)O[C@@H]1CN2CCC1CC2)c1csc(-c2ccc(F)cc2)n1 [Compound 2, (S)-quinuclidin-3-yl 2-(2-(4-fluorophenyl)thiazol-4-yl)propan-2-ylcarbamate]
half-life ([1]; oral, 25 mg, 25 mg single dose, N = 6, read-out: t1/2, Geometric mean (CV) (converted)): 29.8 h | half-life ([1]; oral, 25 mg, 25 mg single dose, N = 6, read-out: t1/2, Mean (SD) (converted)): 30.2 h | Tmax ([1]; oral, 50 mg single dose, N = 6, read-out: tmax, median): 4 h | AUC(0-inf) ([1]; oral, 50 mg, 50 mg single dose, N = 6, read-out: AUCinf, Geometric mean (CV)): 6800 ng·h/mL | AUC(0-inf) ([1]; oral, 50 mg, 50 mg single dose, N = 6, read-out: AUCinf, Mean (SD)): 7130 ng·h/mL | AUC(0-t) ([1]; oral, 50 mg, 50 mg single dose, N = 6, read-out: AUClast, Geometric mean (CV)): 6070 ng·h/mL | AUC(0-t) ([1]; oral, 50 mg, 50 mg single dose, N = 6, read-out: AUClast, Mean (SD)): 6310 ng·h/mL | Cmax ([1]; oral, 50 mg, 50 mg single dose, N = 6, read-out: Cmax, Geometric mean (CV)): 173 ng/mL | Cmax ([1]; oral, 50 mg, 50 mg single dose, N = 6, read-out: Cmax, Mean (SD)): 181 ng/mL | Vd/F ([1]; oral, 50 mg, 50 mg single dose, N = 6, read-out: Vss/F, Geometric mean (CV)): 232 L | Vd/F ([1]; oral, 50 mg, 50 mg single dose, N = 6, read-out: Vss/F, Mean (SD)): 239 L | half-life ([1]; oral, 50 mg, 50 mg single dose, N = 6, read-out: t1/2, Geometric mean (CV) (converted)): 28.5 h | half-life ([1]; oral, 50 mg, 50 mg single dose, N = 6, read-out: t1/2, Mean (SD) (converted)): 28.9 h | AUC(0-inf) ([1]; oral, 100 mg, 100 mg single dose, N = 6, read-out: AUCinf, Geometric mean (CV)): 14100 ng·h/mL | AUC(0-inf) ([1]; oral, 100 mg, 100 mg single dose, N = 6, read-out: AUCinf, Mean (SD)): 14400 ng·h/mL | AUC(0-t) ([1]; oral, 100 mg, 100 mg single dose, N = 6, read-out: AUClast, Geometric mean (CV)): 12800 ng·h/mL | AUC(0-t) ([1]; oral, 100 mg, 100 mg single dose, N = 6, read-out: AUClast, Mean (SD)): 13000 ng·h/mL | Cmax ([1]; oral, 100 mg, 100 mg single dose, N = 6, read-out: Cmax, Geometric mean (CV)): 372 ng/mL | Cmax ([1]; oral, 100 mg, 100 mg single dose, N = 6, read-out: Cmax, Mean (SD)): 374 ng/mL | Vd/F ([1]; oral, 100 mg, 100 mg single dose, N = 6, read-out: Vss/F, Geometric mean (CV)): 212 L | Vd/F ([1]; oral, 100 mg, 100 mg single dose, N = 6, read-out: Vss/F, Mean (SD)): 213 L | half-life ([1]; oral, 100 mg, 100 mg single dose, N = 6, read-out: t1/2, Geometric mean (CV) (converted)): 27.6 h | half-life ([1]; oral, 100 mg, 100 mg single dose, N = 6, read-out: t1/2, Mean (SD) (converted)): 27.8 h | Tmax ([1]; oral, 150 mg single dose, N = 5, read-out: tmax, median): 4 h | AUC(0-inf) ([1]; oral, 150 mg, 150 mg single dose, N = 5, read-out: AUCinf, Geometric mean (CV)): 19900 ng·h/mL | AUC(0-inf) ([1]; oral, 150 mg, 150 mg single dose, N = 5, read-out: AUCinf, Mean (SD)): 20600 ng·h/mL | AUC(0-t) ([1]; oral, 150 mg, 150 mg single dose, N = 5, read-out: AUClast, Geometric mean (CV)): 18000 ng·h/mL | AUC(0-t) ([1]; oral, 150 mg, 150 mg single dose, N = 5, read-out: AUClast, Mean (SD)): 18600 ng·h/mL | Cmax ([1]; oral, 150 mg, 150 mg single dose, N = 5, read-out: Cmax, Geometric mean (CV)): 520 ng/mL | Cmax ([1]; oral, 150 mg, 150 mg single dose, N = 5, read-out: Cmax, Mean (SD)): 529 ng/mL | Vd/F ([1]; oral, 150 mg, 150 mg single dose, N = 5, read-out: Vss/F, Geometric mean (CV)): 223 L | Vd/F ([1]; oral, 150 mg, 150 mg single dose, N = 5, read-out: Vss/F, Mean (SD)): 228 L | half-life ([1]; oral, 150 mg, 150 mg single dose, N = 5, read-out: t1/2, Geometric mean (CV) (converted)): 26.4 h | half-life ([1]; oral, 150 mg, 150 mg single dose, N = 5, read-out: t1/2, Mean (SD) (converted)): 26.9 h | half-life ([1]; po, single oral doses of 2 to 150 mg, read-out: geometric mean t1/2 (converted)): 28.9 h | median time of Cmax ([1]; single oral doses of 2 to 150 mg): 3 to 5.5 h | Mean estimated plasma GL-1 reduction from baseline attributable to Compound 2 Ctrough ([2]; 5 mg dose group, Ctrough 19.0 ng/mL, 90% CI 54.4-79.7%): 67.0% | Mean estimated plasma GL-1 reduction from baseline attributable to Compound 2 Ctrough ([2]; 10 mg dose group, Ctrough 47.5 ng/mL, 90% CI 63.7-85.2%): 74.4% | Mean estimated plasma GL-1 reduction from baseline attributable to Compound 2 Ctrough ([2]; 20 mg dose group, Ctrough 69.9 ng/mL, 90% CI 64.8-87.8%): 76.3% | day of maximal sustained effects on GL-1 ([2]; 5- and 10-mg groups): 11 days | day of maximal sustained effects on GL-1 ([2]; 20-mg group): ≤ 8 days | Mean calculated GL-1 reduction from baseline ([2]; Day 15, 5-mg group): 41.9% | subjects with GL-1 values below LLOQ ([2]; Day 15, 5-mg group (n=9)): 3 subjects | Mean calculated GL-1 reduction from baseline ([2]; Day 15, 10-mg group): 69.6% | subjects with GL-1 values below LLOQ ([2]; Day 15, 10-mg group (n=9)): 5 subjects | Mean calculated GL-1 reduction from baseline ([2]; Day 15, 20-mg group): 74.6% | subjects with GL-1 values below LLOQ ([2]; Day 15, 20-mg group (n=9)): 9 subjects | Mean plasma GM3 level, % of baseline ([3]; Day 15, 5-mg dose group): 42.7 % of baseline | Mean plasma GM3 level, % of baseline ([3]; Day 15, 10-mg dose group): 49.4 % of baseline | subjects with GM3 below the LLOQ ([3]; Day 15, 10-mg dose group): 1 subjects | Mean plasma GM3 level, % of baseline ([3]; Day 15, 20-mg dose group): 57.8 % of baseline | subjects with GM3 below the LLOQ ([3]; Day 15, 20-mg dose group): 2 subjects | start day of maximal sustained GM3 decreases ([3]; all Compound 2 dose groups): 13 days
